Data taken from patent publication US20260250412A1, “COMBINATION OF ANTIBODY-DRUG CONJUGATE AND ANTI-PD-1 ANTIBODY, AND USE THEREOF” (GENEQUANTUM HEALTHCARE (SUZHOU) CO., LTD., priority 2023, published 2026).

Assays:
[1] = tested on: NCI-N87 mouse xenograft tumor; experiment: In vivo efficacy, NCI-N87 mouse xenograft tumor; set-up: species or system BALB/c nude mice; settings: Table 14, BIW*6, 3 mg/kg
[2] = tested on: MDA-MB-468 mouse xenograft tumor; experiment: In vivo efficacy, MDA-MB-468 mouse xenograft tumor; set-up: species or system BALB/c Nude mice; settings: 4.5 mg/kg, intravenously
Experimental: The MDA-MB-468 tumor cells (ATCC, HTB-132) were maintained in vitro as a monolayer culture in L-15 medium supplemented with 10% fetal bovine serum and 1% Antibiotic-Antimycotic at 37° C. in an atmosphere of 0% CO2 in air. The cells growing in an exponential growth phase will be harvested and counted for tumor inoculation. For in vivo anti-tumor efficacy study, 10×10^6 MDA-MB-468 human breast cancer cells (Trop2 positive) in 0.2 mL of PBS with Matrigel (1:1) were inoculated subcutaneously in the right flank in BALB/c Nude mice. […] The tumor volume was measured twice weekly with a caliper. T/C and TGI values were calculated using tumor volume.

[3] = tested on: human breast cancer BR-05-0028 model; experiment: In vivo efficacy, human breast cancer BR-05-0028 mouse xenograft tumor; set-up: species or system BALB/c nude mice
Experimental: II. The tumor diameter was measured with a vernier caliper and the tumor volume was calculated according to the formula V=0.5a×b^2 (where a is the longest diameter of the tumor and b is the shortest diameter of the tumor). […] Animals in each group were administered by tail vein injection, and the control group was given an equal volume of vehicle. […] T/C and TGI values were calculated using tumor volume. The calculation formula is as follows: T/C %=TRTV/CRTV×100% (TRTV: RTV of the treatment group; CRTV: RTV of the vehicle control group). The relative tumor volume (RTV) was calculated based on the results of tumor measurement, and the calculation formula was RTV=Vt/V0, where V0 was the average tumor volume measured at the time of grouping (i.e., D0), Vt was the average tumor volume at one measurement, and TRTV and CRTV took the same day of data.
The human breast cancer BR-05-0028 model (IHC 3±) was derived from tumor samples resected in clinical surgery. The tumor samples were inoculated into nude mice at the P0 generation, and the tumor tissue used in this example was the P5 generation. Tumor tissue with a volume of about 30 mm^3 was subcutaneously inoculated into the right back dorsum of SPF female BALB/c nude mice aged 6-8 weeks.

[4] = Table 15, BIW*6, 5 mg/kg, Day 21

In the case of Trodelvy, the “Tumor volume (mm^3) Day 32” value [1] is reported as 864 ± 114 mm^3, the “T/C (%)” value ([1]; Day 32) is reported as 65.85% and the “TGI (%)” value ([1]; Day 32) is reported as 41.10%. The “Tumor volume (mm^3) Day 0” value ([1]; baseline at grouping) was 227 ± 21 mm^3, the “Tumor volume (mm^3) on day 35” value [2] was 535 ± 60 mm^3 and the “T/C (%)” value ([2]; day 35) was 78.73%. For the same substance, the “TGI (%)” value ([2]; day 35) was 29.24%, the “Tumor volume (mm^3) Day 21” value ([3]; Table 15, BIW*6, 5 mg/kg) was 5 ± 2 mm^3 and the “T/C (%)” value [3, 4] was 0.35%. For the same substance, the “TGI (%)” value [3, 4] was 111.76%, the “Tumor volume (mm^3) Day 0” value ([3]; Table 15, BIW*6, 5 mg/kg, baseline at grouping) was 171 ± 29 mm^3 and the “tumor growth inhibition (in words)” value ([3]; effect example 3.1.3, 5 mg/kg (ADC-1 also 10 mg/kg), after 21 days) was “able to significantly inhibit tumor growth”.
